Results on one compound are retold here after US20220047658A1, “TCM ADDITION AND SUBTRACTION PRESCRIPTION USED PREVENTION/TREATMENT OF METABOLIC SYNDROME AND COMPLICATIONS” (priority 2019, published 2022).

Format in all cases: in vivo
Experiment [1] relates to db/db mice. In words: Test for mAlb urine microalbumin (diabetic nephropathy test). The settings on record: D29, RX-6 6 mg/kg, RX-12 12 mg/kg, MET 350 mg/kg, NOR 20.10 mg/L, FIG. 5. From the text: (§1) Overnight urine is collected and placed on crushed ice to test urine total protein, urine albumin, urine microalbumin, and urine creatinine.
(§2) To investigate TCM complex for prevention and treatment of type II diabetes mellitus in animal model, grade SPF BKS.Cg-Dock7m+/+Leprdb/J mice (referred to as db/db mice for short) were used to conduct a hypoglycemic experiment validation. The mice were allowed with free access to feed and water. The mice were assigned into 4 groups (4 mice per group), and were administered intragastrically with the complex, once per day. […] The animals of each group were orally administered with the sample to Week 4. Urine and blood were collected 4 week later.
(§3) The drugs in the drug groups included Poria, Semen Coicis, Rhizoma Dioscoreae, Semen Euryales, Semen Nelumbinis, Endothelium Corneum Gigeriae Galli, and Paeonia Lactiflora; the preparation method is that, Poria, Semen Coicis, Rhizoma Dioscoreae, Semen Euryales, Semen Nelumbinis, Endothelium Corneum Gigeriae Galli, and Paeonia Lactiflora were prepared and then compounded in a weight ratio of 1:1:1:1:1:1:2 to produce a powder. The obtained powder was diluted in a certain proportion to obtain RX−6 of the low dose (6 mg/kg) drug group, and RX-12 of the high dose (12 mg/kg) drug group. […]

For experiment [2], the system named is db/db mice. In words: Measurement of fasting blood glucose level. The settings on record: MET 350 mg/kg, 2 d after oral administration, data not shown. Here is the method: Fasting blood glucose means blood glucose level under the basal condition, reflecting the basal function of pancreatic islet B cells, and is an important criterion for diagnosis of diabetes mellitus. Oral glucose tolerance test means determination of fasting blood glucose after animals are fasted, and then animals are administered with the drug and administered intragastrically with glucose solution at the corresponding timepoints, and blood glucose is measured prior to intragastric administration of glucose, and 30 min, 60 min and 120 min after intragastric administration of glucose.
(§4) To investigate TCM complex for prevention and treatment of type II diabetes mellitus in animal model, grade SPF BKS.Cg-Dock7m+/+Leprdb/J mice (referred to as db/db mice for short) were used to conduct a hypoglycemic experiment validation. The mice were allowed with free access to feed and water. The mice were assigned into 4 groups (4 mice per group), and were administered intragastrically with the complex, once per day. […] The animals of each group were orally administered with the sample to Week 4. Urine and blood were collected 4 week later. […]
After animals were fasted for 4-6 h, blood was collected at tail end to measure fasting blood glucose. Fasting blood glucose was measured for 4 times, i.e.: prior to grouping, and D2, D7, and D15 after administration of the drug.

Experiment [3] deals with db/db mice. As to the kind of experiment: Test for urine creatinine (diabetic nephropathy test). Conditions: 29-d raise, MET 350 mg/kg, FIG. 6.
Source text: as §1, §2, §3

Experiment [4] concerns db/db mice. As to the kind of experiment: Measurement of glycosylated hemoglobin (HbAlc) concentration. The settings on record: D29, once per day intragastric, RX-6 6 mg/kg, RX-12 12 mg/kg, MET 350 mg/kg, NOR 8.85%, FIG. 2. An excerpt:
Glycosylated hemoglobin (GHb) is a product hemoglobin in red blood cells, conjugated with saccharides in serum. GHb is formed via slow, persistent, and irreversible glycation; its content is dependent on blood glucose concentration, and exposure duration of blood glucose to hemoglobin, and independent of blood collection time, patients' fasting or non-fasting status, or insulin use or non-use, etc. Therefore, GHb may efficiently reflect blood glucose control in patients with diabetes mellitus in the past 1-2 month.
Test method: after animal are fasted, 20 μL of whole blood is collected and placed into an EP tube containing HbAlc diluent; the content of HbAlc is measured by a full-automatic analyzer. The specific method refers to the Instructions of the Kit.
To investigate TCM complex for prevention and treatment of type II diabetes mellitus in animal model, grade SPF BKS.Cg-Dock7m+/+Leprdb/J mice (referred to as db/db mice for short) were used to conduct a hypoglycemic experiment validation. The mice were allowed with free access to feed and water. […]
The concentration was measured on D29 after oral administration of the drug. The animals were fasted for 4-6 h, and then anesthetized by inhalation of isoflurane; […] of whole blood was collected from orbital venous plexus and placed into a EP tube containing HbAlc diluent; the content of HbAlc was measured by a full-automatic analyzer. […]

In experiment [5] the test system is db/db mice. In words: Quantitative test for UTP 24-h urine protein (diabetic nephropathy test). Conditions: D29, RX-6 6 mg/kg, RX-12 12 mg/kg, MET 350 mg/kg, NOR 39.30 mg/DL, FIG. 3.
Source text: as §1, §2
The drugs in the drug groups included Poria, Semen Coicis, Rhizoma Dioscoreae, Semen Euryales, Semen Nelumbinis, Endothelium Corneum Gigeriae Galli, and Paeonia Lactiflora; the preparation method is that, Poria, Semen Coicis, Rhizoma Dioscoreae, Semen Euryales, Semen Nelumbinis, Endothelium Corneum Gigeriae Galli, and Paeonia Lactiflora were prepared and then compounded in a weight ratio of 1:1:1:1:1:1:2 to produce a powder. […]
Quantitative test for 24 h urine protein (UTP24) is a urine test method in which 24-h discharged total urine is collected to conduct a […] test.

Experiment [6] concerns db/db mice. In words: Non-fasting blood glucose level. The settings on record: MET 350 mg/kg, D4 after oral administration. Here is the method: The measured value of 2-H postprandial blood glucose test is the most valuable and may reflect reserve function of pancreatic islet B cells. Blood glucose is measured after animals eat feed.
as §4
The animals were fed randomly and then blood was collected at tail end to measure non-fasting blood glucose level. Fasting blood glucose was measured for […], i.e.: prior to grouping, and 24 h, D4, D7, D15, D21, and D27 after administration of the drug.

`CN(C)C(=N)N=C(N)N` [MET, metformin]: the “mAlb urine microalbumin content” value in the experiment with db/db mice [1] is 8.50 mg/L. The “fasting blood glucose level compared with negative control group NOR” value in the experiment with db/db mice [2] is on record as “less than that in negative control group NOR”. Moreover, in the experiment on db/db mice [3], the urine creatinine increased than that in the negative control group NOR was found to be 10.5 µM. Also, the “glycosylated hemoglobin value (HbAlc)” value with db/db mice [4] came out at 6%. In addition, the “UTP24 h urine protein” value in the experiment with db/db mice [5] came to 39.65 mg/dL. In addition, the “non-fasting blood glucose level compared with control” value in the experiment on db/db mice [6] is on record as “less than that in the positive control”.
